Test in all cases: NCI tumour cell line growth inhibition, 48 h
The test system of assay [1] is XF 498 CNS.
The subject of assay [2] is M19-MEL melanoma.
Assay [3] deals with SN12K1 renal.
For assay [4], the system named is HOP-62 NSCLC.
Assay [5] has as its system SW-620 colon.
Assay [6] concerns DMS 273 small cell lung.
Assay [7] has as its system SK-MEL-2 melanoma.
The subject of assay [8] is HOP-18 NSCLC.
Assay [9] concerns DLD-1 colon.
Assay [10] concerns CCRF-CEM leukemia.
In assay [11] the test system is DMS 114 small cell lung.
Assay [12] relates to KM20L2 colon.
Assay [13] relates to SNB-78 CNS.
The test system of assay [14] is P388/ADR leukemia.
The test system of assay [15] is P388 leukemia.
Assay [16] concerns RXF-631 renal.
The subject of assay [17] is LXFL 529 NSCLC.
Assay [18] concerns OVCAR-8 ovarian.

This is an account of results in PubChem BioAssay (NCI).

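Exposure lasted 48 hours, with cells grown in 96-well plates and compounds tested at five concentrations. TGI denotes the concentration required for complete inhibition of growth.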 Where only a bound is given, the exact number is not on record here.

Take `Cn1c2ccccc2c(=O)c2c(O)cc3c(c21)C=CC(C)(C)O3`: the TGI in assay [1], in assay [2], in [3], in assay [4], in assay [5] and in assay [6] was greater than 25 µM in each case. Moreover, the TGI in assay [7], in assay [8], in assay [9], in [10], in assay [11] and in assay [12] was greater than 25 µM each time. Further, the TGI in [13], in assay [14] and in assay [15] was greater than 25 µM each time.
For the compound `CC1C2C=C(O)C(=O)C(C2=O)C1c1ccccc1` (stereo not given), the TGI in [2], in [4], in assay [16], in assay [5], in assay [17] and in assay [6] was greater than 100 µM each time. The TGI in assay [7], in assay [9], in [10], in assay [18], in assay [12] and in [13] was greater than 100 µM throughout.
For `CCCCCCCCCOCC(COP(=O)([O-])OCC[N+](C)(C)C)OC` (stereo not given), the TGI in assay [1], in assay [2], in assay [3], in assay [4], in [5] and in [6] was greater than 100 µM throughout. In addition, the TGI in [7], in [8], in assay [9], in assay [10], in assay [11] and in assay [18] was greater than 100 µM in each case. The TGI in [12], in assay [13], in [14] and in [15] was greater than 100 µM throughout.
Regarding `CC(C)C1NC(=O)CC(c2ccccc2)N(N=O)C1c1ccccc1` (stereo not given), the TGI in assay [1], in [2], in assay [3], in [4], in assay [5] and in assay [6] was greater than 100 µM each time. For the same compound, the TGI in assay [7], in assay [8], in [9], in assay [10], in [11] and in [18] was greater than 100 µM in each case. Besides, the TGI in assay [12], in assay [13], in assay [14] and in assay [15] was greater than 100 µM each time.
As for `COc1cc(C2(c3ncc[nH]3)SSSCC2O)ccc1O` (stereo not given), the TGI in assay [1] is greater than 100 µM; in [2], greater than 39.6 µM; in [3] it was greater than 55.4 µM; in [4], greater than 100 µM; in [5], greater than 100 µM; in assay [6], greater than 100 µM. Further, the TGI in [7] is greater than 100 µM; in [8] it was greater than 100 µM; in assay [9], greater than 100 µM; in assay [10], greater than 53.6 µM; in [11], 52.2 µM; in assay [18], greater than 100 µM. Further, the TGI is greater than 100 µM in [12], greater than 100 µM in assay [13], greater than 54.8 µM in assay [14] and greater than 48.1 µM in assay [15].
On to `CSCSCC(CO)NC(=O)/C(C)=C\c1c(C)[nH]c(=O)[nH]c1=O` (stereo not given), for which the TGI is greater than 224 µM in [1]; greater than 250 µM in [2]; greater than 250 µM in assay [3]; greater than 250 µM in assay [4]; greater than 250 µM in assay [5]; greater than 250 µM in [6]. Further, the TGI in [7], in assay [9], in assay [10], in assay [11], in assay [18] and in [12] was greater than 250 µM in each case. Moreover, the TGI in assay [13], in assay [14] and in [15] was greater than 250 µM each time.
